From patent US5792784A, “Coupling product obtained from histamine and an amino acid” (Babizhayev; Marc, priority 1993, dated 1998)

Assays:
[1] = Inhibition of deoxyribose oxidation (superoxide from xanthine oxidase/hypoxanthine; TBA/MDA detection); type: biochemical; settings: 10 mM
Description: Several in vitro tests have been carried out in order to reveal the evoked different antioxidant properties.
Experimental procedure described by J. M. C. Gutteridge in Biochemistry Journal, vol. 224 (1984), p. 761-767: oxidation substrate: deoxyribose
Superoxide anions production system: xanthine oxidase/hypoxanthine detection: thiobarbituric acid/malondialdehyde (MDA)

[2] = Inhibition of linoleic acid peroxidation (Fe/ascorbic acid; TBA/MDA); type: biochemical; settings: 25 mM (mixture: 25 mM each), linoleic acid 0.25 mg/ml
Description: oxidation substrate: linoleic acid (0.25 mg/ml), free radicals generating system: Fe/ascorbic acid detection: thiobarbituric acid (TBA)/malondialdehyde (MDA)

[3] = "Peroxidase" activity: reduction of 13-monoperoxide of linoleic acid (L-OOH); type: biochemical; settings: for "peroxidase" activity: 13-monoperoxide linoleic acid 0.5 mM, control 36.7
Description: Lipid peroxides evolution is monitored with the help of 3 methods:
1°) spectrophotometric measure at 233 nm
(O. S. Privett, C. Nickell, W. O. Lundberg, and P. D. Bayer, dans J.Am.Oil Chem. Soc, Vol 32 (1955), P.505-511
2°) Iodometric dosage: M.Hicks' and J. M. Gebicki's method, Analytical Biochemistry, vol 99 (1979), p 249-253.
3°) Chromatography on silica gel plate (hexane/ether/acetic acid 8/7/0.1).
(a) 13-monoperoxide linoleic acid 0.5 mM without reducing agent (preparation according to H. W. Gardner's method Lipids, Vol.10 (1975), p. 248-252).

murine splenocytes = experiment: Immunostimulating activity in vitro on murine splenocytes (tritiated thymidine incorporation); type: cell-based
Description: The procedure is extracted from: J. Kunert-Radek, H. Stepien, K. Lyson and M. Pawlikowski--"Effects of calcium channel modulators on the proliferation of mouse spleen lymphocytes in vitro"--Agents and Actions, vol. 29, Nos 3-4 (1990), p. 254-258.
The cell proliferation is followed by the measurement of the extent of incorporation of tritriated thymidine in the cells, expressed in numbers of desintegrations per mn, deducted from the background.
The results obtained with an immunostimulator of reference, concanavaline A, are given as a comparison.
The immunostimulating effect is expressed by an Index of Stimulation (IS) [formula]
The given values are corresponding to the average of three measures.

[4] = tested on: cutaneous connective tissue; experiment: Repairing of the cutaneous connective tissue after incision in rat (histology); type: in vivo, Wistar rats
Description: This experiment has been carried out on a batch of 12 Wistar rats. An incision of a length of 12 mm involving in depth epiderm and derm as a whole was performed. At the end of the healing, the rats are then treated by topical applications of β-alanyl-histadine for three weeks. At the same time, a reference batch of 12 rats have been treated with placebo for the same lasting time of experiment.

lens = experiment: Cataract patients: lens opacity (slit lamp, retroillumination, image analysis); type: in vivo; settings: for decrease of the opacity: 24 months, groups 2 and 3; for integration peak of opacity distribution: posterior subcapsular cataract
Description: The study has been designed for a prospective evaluation of the modifications of the lens opacity in patients effected by cataract. All the patients have undergone an initial ophtalmic examination. It involved the making of the medical historical record of the patient, a measurement of the visual acuity at a maximum correction, direct or indirect ophtalmoscopies, an evaluation of the opacities with the slit lamp, a clinical grading of the lens after maximal mydriasis, a classification according to the cataract type, and lens pictures by retroillumination. Moreover, samples of blood have been taken at the beginning, then in follow-up for chemical analysis.
Changes of the lens have been examined in all the patients by using the microscope with the Zeiss slit lamp. The photographic observations obtained with this technique included a base line examination, intermediate studies and a final examination at the end of the treatment period.
In using the technique of the slit lamp, the lens has been pictured layer by layer in order to visualize all the anterior segment of the eye, from the cornea to the posterior capsule.
With this technique, Red reflex examination has been carried out, according to a conventional retroillumination. Then lens modifications were graded according to the anatomical location and the importance of the modification.
Cortical opacities have been graded and pictured in retroillumination. Afterwards this film has been submitted to a measurement of linear densitometry with a microdensitometer. The opacity values have been reported in relative value using a standard scale of opacification. The cortical opacities measurement have been rated also taking into account of the total surface exposed to radiation. The posterior subcapsular opacities have been measured in retroillumination by the longest height, from the lower part to the top and by the greatest width, using the scale of the slit lamp.
Pictures of the lens also were taken on nuclear and cortical opacities and later on they were graded.
The different negatives taken with the slit lamp have been analyzed with a "plumbicon tube". This equipment allows one to transpose with a large accuracy a measurement of intensity of light into an electric signal which is integrated and stored in an analysis system of computerized image. With the help of a specific program, the lens image in that manner "digitized" could be reproduced as a graph in two or three dimensions.
A detailed description of this method of image processing is given in : Babizhayev M. A. Zhukotskii A. V. and Sologub A. A. (1992), "Image analysis of the lens opacities induced in developing chick embryo by glucocorticoid", Exp. Eye Res. Vol. 55, p.521-537.
The represented histograms show in a concrete example the interest of such evaluation method. A case of posterior subcapsular cataract is studied before and after 21/2 months of treatment following topical applications with eye drops containing 1% of β-alanyl-histamine. The histograms give the quantitative distribution of opacities with an integration peak of 58.44±18.14 before treatment, and of 44.95±8.77 after 21/2 months of treatment.
Following the protocol described above, we determine the values of the optic density of the lens according to its opacity as well as the visual acuity, and the whole for 24 months. Considering these two parameters, we obtain tables giving results concerning the modification of the visual acuity at the end of 24 months in Tables 1 and 2, and the results concerning the modification of the visual opacity at the end of 24 months in Tables 3 and 4.

[5] = Inhibition of phosphatidylcholine liposome peroxidation (Fe/ascorbic acid; TBA/MDA); settings: 10 mM; control 4.4
Description: oxidation substrate: phosphatidylcholine liposomes
free radicals generating system : Fe/ascorbic acid detection: thiobarbituric acid (TBA)/malondialdehyde (MDA)

[6] = after 21/2 months, eye drops 1%

NCCC(=O)NCCc1c[nH]cn1 [β-alanyl-histamine]
% inhibition of deoxyribose oxidation [1]: 49%
% inhibition [2]: 47%
MDA per mg of linoleic acid ([2]; control 7.95): 4.25 mol MDA per mg of linoleic aci
"peroxidase" activity ([3]; 10 mM): 138.1 mol of L-OOH reduced/hour
"peroxidase" activity ([3]; 20 mM): 187.5 mol of L-OOH reduced/hour
"peroxidase" activity with the adding of EDTA ([3]; EDTA 0.5 mM): completely inhibited
concentration of maximum immunostimulating effect (murine splenocytes): 25 µg/mL
immunostimulating activity versus reference mitogen (murine splenocytes): comparable with a reference mitogen, concanavaline A
fold induction at 2.5 µg/mL (murine splenocytes; Mus musculus, Splenocyte, 2.5 μg/ml, average of three measures, read-out: Index of Stimulation (IS)): 4.8
fold induction at 5 µg/mL (murine splenocytes; Mus musculus, Splenocyte, 5 μg/ml, average of three measures, read-out: Index of Stimulation (IS)): 15.7
fold induction at 10 µg/mL (murine splenocytes; Mus musculus, Splenocyte, 10 μg/ml, average of three measures, read-out: Index of Stimulation (IS)): 16.9
fold induction at 25 µg/mL (murine splenocytes; Mus musculus, Splenocyte, 25 μg/ml, average of three measures, read-out: Index of Stimulation (IS)): 18.6
fold induction at 50 µg/mL (murine splenocytes; Mus musculus, Splenocyte, 50 μg/ml, average of three measures, read-out: Index of Stimulation (IS)): 12.8
density and aspect of the constituents of the connective tissue ([4]; capillary layer versus deep layer): obviously the same in the capillary layer and in the deep layer
thin elastic or reticulin fibres ([4]; dermic superficial layers): generally more numerous in the dermic superficial layers
fundamental substance ([4]; toluidine blue colouring): more abundant than normal
horny-layers ([4]; topical, after 3 weeks): identical to the ones of the surrounding normal epiderm
restoration of epiderm ([4]; topical, after 3 weeks): The epiderm is well restored
visibility of scar ([4]; topical, after 3 weeks): the scar is slightly or even not visible on the skin surface
decrease of the opacity (lens; modification 5 @ 9%): 3
decrease of the opacity (lens; modification 10 @ 14%): 5
decrease of the opacity (lens; modification 15 @ 19%): 5
decrease of the opacity (lens; modification 20 @ 24%): 1
decrease of the opacity (lens; modification +25%): 5
decrease of the opacity (lens; total): 19
opacities in the posterior subcapsular region of the lens (lens; [6]): partial regression of the opacities
integration peak of opacity distribution (lens; [6]): 44.95±8.77
integration peak of opacity distribution (lens; before treatment): 58.44±18.14
MDA per mg of phospholipids [5]: 2.5 mol MDA per mg of phospholipid
